One may read the IC50 as the midpoint of a concentration-inhibition curve. Broadly, the EC50 is the concentration at which the effect is half-maximal.

What all share (assay type): cell-based
The target of one test is mouse NMUR2 (Mus musculus, UniProt Q8BZ39). The test is described as follows: FLIPR calcium mobilization assay, mouse NMUR2. Further details: expressed in transfected cells; host or cells: FLP-In CHO or HEK-293 FLP-In cells (pcDNA5). The text has this:
(§1) Human, mouse or rat cDNAs encoding NMUR1 or NMUR2 (as described in Howard et al. Nature 406: 70-74 (2000) were subcloned in pcDNA5 (Invitrogen) and transfected into FLP-In CHO cells and HEK-293 FLP-In cells purchased from Invitrogen (Carlsbad, Calif.) using lipofectamine (Invitrogen). The Flp-In system allows integration and expression of a particular gene of interest at a specific genomic location utilizing the Flp recombinase from yeast. The transfected cells were selected by growth in medium containing 200 μg/mL hygromycin (Invitrogen). Populations were frozen at early passage numbers, and these stocks were used for further studies. Stable clones that expressed the mRNAs were identified functionally by FLIPR as well as by RT-PCR. […] Two different rodent NMUR1 cell lines were thus generated: one with the codon as predicted from the genomic databases and another cell line with an engineered methionine (ATG) as the start codon. Additionally, stable cell lines expressing the human receptors were generated in HEK-293/aeq17 cells which stably express the aequorin gene under the CMV promoter. The human NMUR2 cDNA was cloned into pcDNA3.1 and human NMUR1 was subcloned into pIRES-puro (Clontech, Mountain View, Calif.), after transfection cells were selected in media containing G418 and either hygromycin (NMUR2) or puromycin (NMUR1).
(§2) The NMU receptors signal primarily through Gαq/11 proteins; therefore calcium mobilization assays can be utilized for functional activity.
(§3) Stable cell lines expressing human and or rodent NMUR1 or human NMUR2 receptors were plated at a density of 12,000 cells per well overnight on poly-lysine coated 384-well black-walled plates. The following day, the media was removed from the plates and the cells were subsequently loaded with Fluo-3 (Molecular Probes), a calcium sensitive dye, diluted in FLIPR buffer (1× Hank's buffered saline containing 20 mM HEPES, 0.1% BSA, 2.5 mM probenecid (Sigma) and 1.6 mM TR40). All reagents are from Invitrogen unless otherwise noted. Peptide stocks were resuspended in DMSO at a stock concentration of 2 mM and diluted in FLIPR buffer on the day of the experiment to a 4 μM working stock solution.
(§4) After a 90 minute incubation at room-temperature, cell plates were loaded onto a FLIPR (Molecular Devices) to monitor cellular fluorescence (excitation=488 nm; emission=540 nm) before and after compound/peptide addition. Eight to twelve point dose responses were tested on NMUR-expressing cell lines using FLIPR with 1 μM peptide as the highest dose. The response after peptide addition was taken as the maximum fluorescence units minus the fluorescence immediately prior to stimulation for each well. EC50 values were calculated using GraphPad Prism (San Diego, Calif.) software.
In vitro responses of Neuromedin U receptor agonists (NMU1 to NMU25) in the FLIPR assay for human (Table 3), mouse (Table 4) and rat (Table 5) NMUR1 and NMUR2. EC50s are reported in nM values. Percent activity refers to the maximum response at 1 μM compared to the hNMU-25 response at the same concentration. NT=not tested.
(Calcium assays in cells follow changes in intracellular calcium, usually with a dye or a luminescent sensor.)

A further test deals with hNMUR2 (Homo sapiens, UniProt Q9GZQ4). In words: FLIPR calcium mobilization assay, human NMUR2. Details: expressed in transfected cells; host or cells: FLP-In CHO or HEK-293 FLP-In cells (pcDNA5); HEK-293/aeq17 lines (pcDNA3.1) were also made.
A further test has as its target T1, hNMUR1 (Homo sapiens, UniProt Q9HB89).
T1 sequence (Q9HB89 1-426): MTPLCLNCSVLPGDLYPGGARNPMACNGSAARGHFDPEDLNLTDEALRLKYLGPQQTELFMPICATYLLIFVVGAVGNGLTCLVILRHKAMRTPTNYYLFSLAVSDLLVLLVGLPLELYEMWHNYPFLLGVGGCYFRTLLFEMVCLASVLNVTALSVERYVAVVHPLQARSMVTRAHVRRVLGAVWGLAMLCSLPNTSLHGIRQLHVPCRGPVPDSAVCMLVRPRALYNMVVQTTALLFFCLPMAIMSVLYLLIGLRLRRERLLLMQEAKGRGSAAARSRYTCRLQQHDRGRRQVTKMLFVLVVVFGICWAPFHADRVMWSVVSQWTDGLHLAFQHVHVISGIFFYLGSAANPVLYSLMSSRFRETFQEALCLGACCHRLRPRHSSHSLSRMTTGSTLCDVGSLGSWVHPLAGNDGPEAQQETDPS
The test is described as follows: In vitro functional assay, HEK-hR1 cells. Further details: expressed in transfected cells; host or cells: FLP-In CHO or HEK-293 FLP-In cells (pcDNA5); HEK-293/aeq17 lines (pIRES-puro) were also made. To be noted: Table 8, HEK-hR1, functional.
Description: as §1, §2, §3, §4
In addition to FLIPR, NMU receptor function can also be evaluated using an aequorin assay. Stable cell lines expressing the aequorin jelly fish gene can be used to report the activation of GPCRs by monitoring intracellular calcium mobilization. The objective is to identify compounds which specifically stimulate aequorin bioluminescence. Calcium-dependent luminescence is generated by the treatment of cells with the coelenterate luciferin, coelenterazine. Briefly, confluent monolayers of HEK-293/aeq 17 cells expressing hNMUR1 or hNMUR2 are “charged” with coelenterazine (Molecular Probes, Carlsbad, Calif.). Confluent T75 flasks are rinsed with media containing 300 μM glutathione and 0.1% FBS. Cells are incubated at 37° C. for one hour in 8 mL media, 0.1% FBS, 300 μM glutathione, and 20 μM coelenterazine. T75 flasks are subsequently rinsed with 6 mL ECB buffer (140 mM NaCl, 20 mM KCl, 20 mM HEPES, 5 mM glucose, 1 mM MgCl, 1 mM CaCl2, 0.1 mg/mL BSA, PH 7.3-7.4). Cells are removed from the flask in ECB buffer, pelleted, and resuspended at a density of 2×10^5 cells/mL. Agonists are added to the cells and activity is determined using a luminometer. […]

Non-standard residues stand in square brackets, D forms with d. Residues, ends and D or L forms follow the SMILES beside them. *: point of attachment. Palmitoyl = CCCCCCCCCCCCCCCC(=O)*

Sequence of hNMUR2 (Q9GZQ4 whole entry): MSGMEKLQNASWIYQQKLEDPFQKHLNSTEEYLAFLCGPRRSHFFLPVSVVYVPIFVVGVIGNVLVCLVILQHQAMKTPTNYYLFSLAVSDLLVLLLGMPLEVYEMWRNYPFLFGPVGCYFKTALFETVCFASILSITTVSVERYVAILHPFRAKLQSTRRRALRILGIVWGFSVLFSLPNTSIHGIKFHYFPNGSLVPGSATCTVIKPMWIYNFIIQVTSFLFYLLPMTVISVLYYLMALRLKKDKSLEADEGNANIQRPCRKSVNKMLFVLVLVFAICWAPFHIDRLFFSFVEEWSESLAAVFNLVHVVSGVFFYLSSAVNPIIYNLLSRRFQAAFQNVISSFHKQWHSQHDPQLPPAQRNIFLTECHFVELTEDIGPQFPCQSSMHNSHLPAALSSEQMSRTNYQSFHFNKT
Sequence of mouse NMUR2 (Q8BZ39 whole entry): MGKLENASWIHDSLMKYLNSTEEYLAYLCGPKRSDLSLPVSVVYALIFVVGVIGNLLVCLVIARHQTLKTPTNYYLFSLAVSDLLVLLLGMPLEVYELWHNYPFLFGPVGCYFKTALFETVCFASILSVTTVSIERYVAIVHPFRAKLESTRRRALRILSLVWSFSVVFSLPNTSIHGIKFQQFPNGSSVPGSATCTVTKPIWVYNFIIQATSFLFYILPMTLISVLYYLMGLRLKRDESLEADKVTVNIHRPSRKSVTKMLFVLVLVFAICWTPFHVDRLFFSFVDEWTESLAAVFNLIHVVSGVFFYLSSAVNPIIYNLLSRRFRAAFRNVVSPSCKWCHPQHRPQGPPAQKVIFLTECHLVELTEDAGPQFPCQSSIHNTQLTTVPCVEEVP

On to `CC(C)C[C@@H](NC(=O)[C@H](Cc1ccccc1)NC(=O)[C@H](Cc1ccc(O)cc1)NC(=O)CNC(=O)[C@H](CCCNC(=N)N)NC(=O)[C@H](CO)NC(=O)[C@H](CCC(N)=O)NC(=O)[C@H](CO)NC(=O)[C@H](C)NC(=O)[C@H](Cc1ccccc1)NC(=O)[C@@H]1CCCN1C(=O)[C@H](CO)NC(=O)[C@H](CCC(N)=O)NC(=O)[C@H](Cc1ccccc1)NC(=O)[C@H](CCC(=O)O)NC(=O)[C@H](CCC(=O)O)NC(=O)[C@H](CC(=O)O)NC(=O)[C@@H](NC(=O)[C@H](CCCNC(=N)N)NC(=O)[C@@H](N)Cc1ccccc1)C(C)C)C(=O)N[C@@H](Cc1c[nH]c2ccccc12)C(=O)N[C@@H](CCCNC(=N)N)C(=O)N1CCC[C@H]1C(=O)N[C@@H](CCCNC(=N)N)C(=O)N[C@@H](CC(N)=O)C(N)=O` [Agonist H] (H-FRVDEEFQSPFASQSRGYF[dL]WRPRN-NH2; N-terminus assumed), for which the concentration for half-maximal inhibition (IC50) on mouse NMUR2 (functional data, mouse R2) was > 1000 nM; on hNMUR1, 19 nM. The “% Activity” value on mouse NMUR2 (functional, mouse R2, relative to native hNMU responses) turned out to be 40%; at hNMUR2 (functional, human R2, relative to native hNMU responses), 0%; at hNMUR1, 88%.
For “Pam-C2FRVDEEFQSPFASQSRGYFLFRPRN-CONH2 ({Palmitoyl-C(PEG 40 kDa)}-FRVDEEFQSPFASQSRGYFLFRPRN-NH2) [NMU25, Pam = palmitoyl; C2 = Cys(PEG)240 kDa]”, the EC50 in the test with mouse NMUR2 (FLIPR, mouse NMUR2) turned out to be 18.8 nM; with hNMUR2 (FLIPR, human NMUR2), 44.1 nM. Moreover, the “% Activity” value with hNMUR2 (maximum response at 1 μM compared to hNMU-25, human NMUR2) was 98.8%.

Source of the values: patent US20100075907A1, “NEUROMEDIN U RECEPTOR AGONISTS AND USES THEREOF” (priority 2006, published 2010).
